Source: ChEMBL document CHEMBL1153442, “Synthesis and in vitro evaluation of sulfonamide isatin Michael acceptors as small molecule inhibitors of caspase-6” (J Med Chem, 2009)

molecular target: T1, Caspase-1 (Homo sapiens, UniProt P29466); assay: Inhibition of human recombinant caspase 1 assessed as accumulation of fluorogenic product by fluorometric assay
T1 sequence (P29466 whole entry): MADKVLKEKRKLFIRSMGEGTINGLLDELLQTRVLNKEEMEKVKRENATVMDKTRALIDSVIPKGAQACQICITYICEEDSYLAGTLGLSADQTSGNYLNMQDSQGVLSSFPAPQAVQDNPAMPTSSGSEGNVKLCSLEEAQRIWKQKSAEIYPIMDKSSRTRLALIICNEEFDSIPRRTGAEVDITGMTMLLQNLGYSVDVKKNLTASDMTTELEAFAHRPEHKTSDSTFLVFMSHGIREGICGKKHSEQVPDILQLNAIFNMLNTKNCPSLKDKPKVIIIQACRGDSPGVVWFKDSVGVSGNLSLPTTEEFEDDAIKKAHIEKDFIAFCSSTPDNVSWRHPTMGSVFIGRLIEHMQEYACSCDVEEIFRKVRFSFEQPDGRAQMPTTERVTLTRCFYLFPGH

IC50 [nM] | Compound
> 10000 | O=C1C(=O)N(Cc2ccccc2)c2ccc(S(=O)(=O)N3CCC3)cc21
> 10000 | N#CC(C#N)=C1C(=O)N(Cc2ccc(Cl)c(Cl)c2)c2ccc(S(=O)(=O)N3CCC3)cc21
> 10000 | COc1ccc(CN2C(=O)C(=C(C#N)C#N)c3cc(S(=O)(=O)N4CCCCC4)ccc32)cc1
5350 | N#CC(C#N)=C1C(=O)N(Cc2ccc(Cl)c(Cl)c2)c2ccc(S(=O)(=O)N3CCOCC3)cc21
> 25000 | O=C1Nc2ccc(S(=O)(=O)N3CCOCC3)cc2C1=O
5350 | N#CC(C#N)=C1C(=O)N(Cc2ccc(Cl)c(Cl)c2)c2ccc(S(=O)(=O)N3CCSCC3)cc21
> 10000 | N#CC(C#N)=C1C(=O)N(Cc2ccc(Cl)c(Cl)c2)c2ccc(S(=O)(=O)N3CCCCC3)cc21

molecular target: T2, Caspase-3 (Homo sapiens, UniProt P42574); assay: Inhibition of human recombinant caspase 3 assessed as accumulation of fluorogenic product by fluorometric assay
T2 sequence (P42574 whole entry): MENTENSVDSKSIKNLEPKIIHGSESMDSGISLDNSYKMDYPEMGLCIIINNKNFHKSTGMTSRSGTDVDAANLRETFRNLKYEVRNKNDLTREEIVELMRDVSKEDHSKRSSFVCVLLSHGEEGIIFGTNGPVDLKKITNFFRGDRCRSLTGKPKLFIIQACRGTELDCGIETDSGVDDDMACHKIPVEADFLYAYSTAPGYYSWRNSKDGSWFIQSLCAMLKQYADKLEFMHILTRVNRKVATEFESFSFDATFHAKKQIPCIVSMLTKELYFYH

IC50 [nM] | Compound
114 | O=C1C(=O)N(Cc2ccccc2)c2ccc(S(=O)(=O)N3CCC3)cc21
365 | N#CC(C#N)=C1C(=O)N(Cc2ccc(Cl)c(Cl)c2)c2ccc(S(=O)(=O)N3CCC3)cc21
14.5 | O=C1C(=O)N(Cc2ccccc2)c2ccc(S(=O)(=O)N3CCC[C@H]3COc3ccccc3)cc21
583 | N#CC(C#N)=C1C(=O)N(Cc2ccccc2)c2ccc(S(=O)(=O)N3CCCCC3)cc21
1400 | COc1ccc(CN2C(=O)C(=C(C#N)C#N)c3cc(S(=O)(=O)N4CCCCC4)ccc32)cc1
4700 | N#CC(C#N)=C1C(=O)N(Cc2ccccc2)c2ccc(S(=O)(=O)N3CCOCC3)cc21
1550 | N#CC(C#N)=C1C(=O)N(Cc2ccc(Cl)c(Cl)c2)c2ccc(S(=O)(=O)N3CCOCC3)cc21
> 20000 | O=C1Nc2ccc(S(=O)(=O)N3CCOCC3)cc2C1=O
1990 | N#CC(C#N)=C1C(=O)N(Cc2ccc(Cl)c(Cl)c2)c2ccc(S(=O)(=O)N3CCSCC3)cc21
529 | N#CC(C#N)=C1C(=O)N(Cc2ccc(Cl)c(Cl)c2)c2ccc(S(=O)(=O)N3CCCCC3)cc21

molecular target: T3, Caspase-6 (Homo sapiens, UniProt P55212); assay: Inhibition of human recombinant caspase 6 assessed as accumulation of fluorogenic product by fluorometric assay
T3 sequence (P55212 whole entry): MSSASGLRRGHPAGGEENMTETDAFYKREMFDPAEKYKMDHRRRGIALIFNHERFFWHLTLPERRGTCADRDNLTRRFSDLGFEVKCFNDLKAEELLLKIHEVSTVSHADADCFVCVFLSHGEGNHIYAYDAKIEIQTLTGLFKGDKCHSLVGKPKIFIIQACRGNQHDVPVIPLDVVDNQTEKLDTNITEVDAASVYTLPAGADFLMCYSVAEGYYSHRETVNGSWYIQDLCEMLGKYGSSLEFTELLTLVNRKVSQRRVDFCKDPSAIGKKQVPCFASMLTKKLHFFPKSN

IC50 [nM] | Compound
9830 | O=C1C(=O)N(Cc2ccccc2)c2ccc(S(=O)(=O)N3CCC3)cc21
280 | N#CC(C#N)=C1C(=O)N(Cc2ccc(Cl)c(Cl)c2)c2ccc(S(=O)(=O)N3CCC3)cc21
> 5000 | O=C1C(=O)N(Cc2ccccc2)c2ccc(S(=O)(=O)N3CCC[C@H]3COc3ccccc3)cc21
325 | N#CC(C#N)=C1C(=O)N(Cc2ccccc2)c2ccc(S(=O)(=O)N3CCCCC3)cc21
545 | COc1ccc(CN2C(=O)C(=C(C#N)C#N)c3cc(S(=O)(=O)N4CCCCC4)ccc32)cc1
425 | N#CC(C#N)=C1C(=O)N(Cc2ccccc2)c2ccc(S(=O)(=O)N3CCOCC3)cc21
592 | N#CC(C#N)=C1C(=O)N(Cc2ccc(Cl)c(Cl)c2)c2ccc(S(=O)(=O)N3CCOCC3)cc21
> 20000 | O=C1Nc2ccc(S(=O)(=O)N3CCOCC3)cc2C1=O
230 | N#CC(C#N)=C1C(=O)N(Cc2ccc(Cl)c(Cl)c2)c2ccc(S(=O)(=O)N3CCSCC3)cc21
568 | N#CC(C#N)=C1C(=O)N(Cc2ccc(Cl)c(Cl)c2)c2ccc(S(=O)(=O)N3CCCCC3)cc21

molecular target: T4, Caspase-7 (Homo sapiens, UniProt P55210); assay: Inhibition of human recombinant caspase 7 assessed as accumulation of fluorogenic product by fluorometric assay
T4 sequence (P55210 whole entry): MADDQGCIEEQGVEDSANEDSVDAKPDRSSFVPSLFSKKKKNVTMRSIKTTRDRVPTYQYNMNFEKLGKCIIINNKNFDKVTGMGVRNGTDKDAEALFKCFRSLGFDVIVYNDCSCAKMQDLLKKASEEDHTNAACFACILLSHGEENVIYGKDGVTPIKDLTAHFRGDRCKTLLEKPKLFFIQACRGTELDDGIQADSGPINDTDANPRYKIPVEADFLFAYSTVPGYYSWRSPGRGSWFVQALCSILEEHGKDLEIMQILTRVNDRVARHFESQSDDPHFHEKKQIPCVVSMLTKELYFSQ

IC50 [nM] | Compound
132 | O=C1C(=O)N(Cc2ccccc2)c2ccc(S(=O)(=O)N3CCC3)cc21
340 | N#CC(C#N)=C1C(=O)N(Cc2ccc(Cl)c(Cl)c2)c2ccc(S(=O)(=O)N3CCC3)cc21
878 | N#CC(C#N)=C1C(=O)N(Cc2ccccc2)c2ccc(S(=O)(=O)N3CCCCC3)cc21
1150 | COc1ccc(CN2C(=O)C(=C(C#N)C#N)c3cc(S(=O)(=O)N4CCCCC4)ccc32)cc1
4470 | N#CC(C#N)=C1C(=O)N(Cc2ccccc2)c2ccc(S(=O)(=O)N3CCOCC3)cc21
7900 | N#CC(C#N)=C1C(=O)N(Cc2ccc(Cl)c(Cl)c2)c2ccc(S(=O)(=O)N3CCOCC3)cc21
> 20000 | O=C1Nc2ccc(S(=O)(=O)N3CCOCC3)cc2C1=O
2.95 | CC(=O)N[C@@H](CC(=O)O)C(=O)N[C@@H](CCC(=O)O)C(=O)N[C@H](C(=O)N[C@H](C=O)CC(=O)O)C(C)C
5100 | N#CC(C#N)=C1C(=O)N(Cc2ccc(Cl)c(Cl)c2)c2ccc(S(=O)(=O)N3CCSCC3)cc21
3420 | N#CC(C#N)=C1C(=O)N(Cc2ccc(Cl)c(Cl)c2)c2ccc(S(=O)(=O)N3CCCCC3)cc21

molecular target: Caspase-8 (Homo sapiens, UniProt Q14790); assay: Inhibition of human recombinant caspase 8 assessed as accumulation of fluorogenic product by fluorometric assay
Sequence (Q14790 217-374 limits assumed): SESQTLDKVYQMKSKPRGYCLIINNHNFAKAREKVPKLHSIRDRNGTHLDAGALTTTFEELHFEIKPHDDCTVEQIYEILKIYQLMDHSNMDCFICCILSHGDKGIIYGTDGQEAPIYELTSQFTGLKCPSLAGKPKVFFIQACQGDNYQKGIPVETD
Sequence (Q14790 385-479 limits assumed): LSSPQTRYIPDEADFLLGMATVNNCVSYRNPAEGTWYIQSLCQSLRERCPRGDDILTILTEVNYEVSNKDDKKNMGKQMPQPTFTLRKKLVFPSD

IC50 [nM] | Compound
> 50000 | O=C1C(=O)N(Cc2ccccc2)c2ccc(S(=O)(=O)N3CCC3)cc21
> 50000 | N#CC(C#N)=C1C(=O)N(Cc2ccc(Cl)c(Cl)c2)c2ccc(S(=O)(=O)N3CCC3)cc21
> 50000 | N#CC(C#N)=C1C(=O)N(Cc2ccccc2)c2ccc(S(=O)(=O)N3CCCCC3)cc21
> 50000 | COc1ccc(CN2C(=O)C(=C(C#N)C#N)c3cc(S(=O)(=O)N4CCCCC4)ccc32)cc1
> 50000 | N#CC(C#N)=C1C(=O)N(Cc2ccccc2)c2ccc(S(=O)(=O)N3CCOCC3)cc21
> 50000 | N#CC(C#N)=C1C(=O)N(Cc2ccc(Cl)c(Cl)c2)c2ccc(S(=O)(=O)N3CCOCC3)cc21
> 50000 | O=C1Nc2ccc(S(=O)(=O)N3CCOCC3)cc2C1=O
> 50000 | N#CC(C#N)=C1C(=O)N(Cc2ccc(Cl)c(Cl)c2)c2ccc(S(=O)(=O)N3CCSCC3)cc21
> 50000 | N#CC(C#N)=C1C(=O)N(Cc2ccc(Cl)c(Cl)c2)c2ccc(S(=O)(=O)N3CCCCC3)cc21
